Measured values from US20030228675A1, “ATM related kinase ATX, nucleic acids encoding same and methods of use” (priority 2002, published 2003).

Columns and labels:
Format in all cases: cell-based, human
[1] = test system: U2OS cells; experiment: Clonogenic survival assay of oligonucleotide-transfected cells
Experimental: To address concerns related to potential non-specific effects of ATXKI expression on cellular functions, an antisense oligonucleotide-based approach to reduce the level of ATX expression in U2OS cells was developed. The cells were mock transfected, or transfected with sense (S) or antisense (AS) oligonucleotides, and then treated for 24 h with various genotoxic agents. The cells were then trypsinized and replated, and clonogenic survival was analyzed after 10 days in culture. The results obtained with AS-treated cells were strikingly similar to those obtained with the ATXKI-expressing cells (FIGS. 2A-C). While transfection of U2OS cells with the S oligonucleotide reduced the basal level of colony outgrowth by 25%, treatment with the AS oligonucleotide decreased basal clonogenic activity by 75% (FIG. 2C, right panel). […] The reduction in ATX protein caused by AS treatment ranged from 50-90% in over 10 independent trials.
(§1) To prepare recombinant HA-tagged ATX and ATM proteins, HEK 293T cells were plated onto 60-mm dishes (9×10^5 cells per dish), and were transfected with 5 μg pcDNA3.1 (empty vector), HA-ATXWT, HA-ATXKI, or HA-ATMWT plasmid DNAS. Transfections were performed with the Fugene 6 transfection reagent (Roche), according to the manufacturer's instructions. For NMD assays (see Example 9, below), U2OS cells were seeded onto 100 mm dishes (1×10^6 cells per dish). […]
U2OS cells were seeded into 60 mm dishes (1×10^5 cells per dish) in complete medium. […] To quantitate the outgrowth of drug-resistant cells, the Coomassie Blue-bound protein was solubilized at 37° C. with 0.1 M NaOH, and the soluble material was analyzed by absorbance spectroscopy at a wavelength of 590 nm. […] Drug-resistant colonies were stained with Coomassie Blue after 10 days in culture, and the samples were analyzed with Image Pro Plus software to quantitate cell density. […]

[2] = test system: ATX; experiment: Protein levels in oligonucleotide-treated cells by immunoblotting; conditions: U2OS
Experimental: as §1, with “dish). After 20 h, cells were transfected with 1.5 μg of pmCMV-Gl test plasmid, either Norm or 39Ter (Ishigaki et al., 2001); 1.5 μg of phCMV-MUP reference plasmid (Ishigaki et al., Cell 106:607-617 (2001)); and 7 μg of empty plasmid (pcDNA 3.1), plasmids encoding HA-ATMWT, HA-ATMKI, HA-ATXWT or HA-ATXKI.” for “dish).”
Since p53 plays a central role in activation of the G1 checkpoint, and influences S, G2, and M checkpoints as well (Giaccia and Kastan, Genes & Development 12:2973-2983 (1998); Ko and Prives, supra, 1996), a functional deficiency of ATX might alter the cell-cycle arrest responses to IR and other genotoxic agents. To test this possibility, U2OS cells were pre-treated with S or AS oligonucleotides, exposed to IR, and cell-cycle distributions at 24 h post-irradiation were determined. […]

[3] = test system: p53; experiment: Stress-induced p53 Ser-15 phosphorylation and p53 accumulation by immunoblotting
Experimental: To prepare recombinant HA-tagged ATX and ATM proteins, HEK 293T cells were plated onto 60-mm dishes (9×10^5 cells per dish), and were transfected with 5 μg pcDNA3.1 (empty vector), HA-ATXWT, HA-ATXKI, or HA-ATMWT plasmid DNAS. Transfections were performed with the Fugene 6 transfection reagent (Roche), according to the manufacturer's instructions. For NMD assays (see Example 9, below), U2OS cells were seeded onto 100 mm dishes (1×10^6 cells per dish). After 20 h, cells were transfected with 1.5 μg of pmCMV-Gl test plasmid, either Norm or 39Ter (Ishigaki et al., 2001); 1.5 μg of phCMV-MUP reference plasmid (Ishigaki et al., Cell 106:607-617 (2001)); and 7 μg of empty plasmid (pcDNA 3.1), plasmids encoding HA-ATMWT, HA-ATMKI, HA-ATXWT or HA-ATXKI. For antisense transfection experiments, U2OS cells were seeded onto 60 mm dishes (1×10^5 cells per dish) in complete medium supplemented with penicillin/streptomycin. After 30 h, cells were either mock transfected or transfected with sense (S) or antisense (AS) phosphorothioate oligonucleotides (Genset Oligos, La Jolla, Calif.). The S oligonucleotide spans ATX nucleotides 210-229 (5′-[…]-3′), and the AS oligonucleotide is complementary to this sequence (5′-[…]-3′). The cells were transfected with oligonucleotides at final concentrations of 8 μg/ml, with Fugene 6:DNA ratio of 1.6:1. Forty-eight hours after transfection, dishes were exposed to IR, UV-B, or 5-FU, and then harvested for immunoblotting, cell-cycle distribution, or cell survival assays. To examine ATX protein levels in oligonucleotide-treated cells, whole cell extracts were resolved by SDS-PAGE and immunoblotted with α-ATX Ab-1. When oligonucleotide-transfected cells were used for NMD assays, U2OS cells were seeded in culture dishes as described above. The cells were transfected using the Fugene reagent, with 1.5 μg of pmCMV-Gl test plasmid, 0.7 μg of phCMV-MUP reference plasmid, and 24 μg of S or AS oligonucleotide.
A major mediator of stress-induced signaling in mammalian cells is the tumor suppressor protein, p53 (Ko and Prives, Genes and Development 10:1054-1072, (1996); Ryan et al., Curr. Opin. Cell Biol. 13:332-337 (2001)). ATX phosphorylates p53 on Ser-15 (FIG. 1C), a site implicated in the regulation of p53 stability and transcriptional activity (Dumaz and Meek, Curr. Opin. Cell Biol. 13:225-231 (1999); Zhang and Xiong, Science 292:1910-1915 (2001)). Therefore, the possibility that these two proteins are functionally linked during cellular stress responses was investigated. U2OS cells were transiently transfected with a HA-ATXWT or HA-ATXKI expression plasmid, together with a GFP-encoding plasmid to allow for FACS-based enrichment of the transfected cells. The GFP+ cells were then examined for IR-induced stabilization of p53, as well as for specific phosphorylation of this protein on Ser-15. […] In contrast, overexpression of ATXWT enhanced both of these responses in cells exposed to IR.
The recognition of UV light-induced DNA damage occurs primarily during S phase, when pyrimidine dimers and other bulky lesions interfere with replication fork progression (Friedberg, DNA Repair and Mutagenesis (Washington, D.C., ASM Press) (1995); Lindahl and Wood, Cell 103:1121-1131 (1999)).
In order to further define the potential linkage between DNA replicational stress and ATX, the response of AS-treated cells to 5-fluorouracil (5-FU), an S-phase specific cytotoxic agent was examined (Danenberg et al., Seminars in Oncology 26:621-631 (1999); Grem, Investigational New Drugs 18:299-313 (2000)).
Changes in phosphorylation at Ser-15 are typically accompanied by alterations in the expression of the p53 protein, which complicates the interpretation of results obtained by immunoblotting of whole cell extracts with phospho-Ser-15-specific antibodies. […]

5′-AGCAAGCTCCCTCCTGTCTC-3′ (all phosphorothioate, sugars by position and methylation of C not given here) [AS oligonucleotide, ATX antisense phosphorothioate oligonucleotide complementary to ATX nucleotides 210-229]
sensitivity to suppressive effects of IR and UV on clonogenic survival ([1]; IR and UV treatments): significantly more sensitive
decrease of basal level of colony outgrowth (basal clonogenic activity) ([1]; non-irradiated, 10 days in culture): 75%
expression levels of control proteins ATM and PLC-γ1 ([2]; immunoblot): no significant change
reduction in ATX protein ([2]; over 10 independent trials): 50-90%
stoichiometric increase in Ser-15 phosphorylation (phospho-Ser-15 to total p53) triggered by UV ([3]; U2OS pretreated with proteasome inhibitor LLnV, UV): effectively blocked
level of p53 induction by 5-FU ([3]; U2OS, 5-FU exposure, versus S-treated cells): identical to that observed in their S-treated counterparts
phosphorylation and stabilization of p53 induced by IR exposure ([3]; U2OS, IR): reduced both the phosphorylation and stabilization of p53
Ser-15 phosphorylation and p53 protein accumulation in UV-damaged cells ([3]; U2OS, UV): severely impaired both Ser-15 phosphorylation and p53 protein accumulation
